This is an account of results in US8697706B2 (priority 2011, dated 2014).

The assay concerns HCV pseudoparticles (genotype 1a HCV E1 and E2 envelope, H77C isolate). In words: microbe, parasite or virus in culture. Format: cell-based, HCV genotype 1a (H77C isolate). To be noted: Hepatitis C virus, Huh-7, 48 h, HCV pseudoparticle entry into Huh7 cells, luciferase measured 2 days after infection.

In the case of `CC1(C)CNCCCOc2ccc(cc2)CNc2cc(OCC(F)(F)F)nc(n2)Nc2ccc(cc2)C(=O)NC1` [Compound 3002], the EC50 (usually the midpoint of the concentration-response curve) (class symbol) is under 100 nM. `CC1(C)CNCCCOc2ccc(cc2)CNc2nc(cc(OCC(F)(F)F)n2)Nc2ccc(cc2)C(=O)NC1` [Compound 3001]: the EC50 reads like this: (average of duplicate) 106 nM; (class symbol) 100 to 1000 nM.
